Reference: ChEMBL document CHEMBL5528046, “Discovery of Novel PROTAC Degraders of p300/CBP as Potential Therapeutics for Hepatocellular Carcinoma” (J Med Chem, 2024)
Activity calls are given as the source filed them. No cut-off for these calls is given here.

How the values were obtained:
[1] = target: T1, Protein cereblon/Histone acetyltransferase p300 (Homo sapiens, UniProt Q09472+Q96SW2); test: PROTAC activity at CRBN/p300 in human SK-HEP1 cells assessed as induction of p300 protein degradation by measuring residual activity at 1 uM incubated for 6 hrs by immunoblotting analysis (reference value: 100%); assay type: cell-based
T1 sequence (Q09472 2-2414 limits assumed): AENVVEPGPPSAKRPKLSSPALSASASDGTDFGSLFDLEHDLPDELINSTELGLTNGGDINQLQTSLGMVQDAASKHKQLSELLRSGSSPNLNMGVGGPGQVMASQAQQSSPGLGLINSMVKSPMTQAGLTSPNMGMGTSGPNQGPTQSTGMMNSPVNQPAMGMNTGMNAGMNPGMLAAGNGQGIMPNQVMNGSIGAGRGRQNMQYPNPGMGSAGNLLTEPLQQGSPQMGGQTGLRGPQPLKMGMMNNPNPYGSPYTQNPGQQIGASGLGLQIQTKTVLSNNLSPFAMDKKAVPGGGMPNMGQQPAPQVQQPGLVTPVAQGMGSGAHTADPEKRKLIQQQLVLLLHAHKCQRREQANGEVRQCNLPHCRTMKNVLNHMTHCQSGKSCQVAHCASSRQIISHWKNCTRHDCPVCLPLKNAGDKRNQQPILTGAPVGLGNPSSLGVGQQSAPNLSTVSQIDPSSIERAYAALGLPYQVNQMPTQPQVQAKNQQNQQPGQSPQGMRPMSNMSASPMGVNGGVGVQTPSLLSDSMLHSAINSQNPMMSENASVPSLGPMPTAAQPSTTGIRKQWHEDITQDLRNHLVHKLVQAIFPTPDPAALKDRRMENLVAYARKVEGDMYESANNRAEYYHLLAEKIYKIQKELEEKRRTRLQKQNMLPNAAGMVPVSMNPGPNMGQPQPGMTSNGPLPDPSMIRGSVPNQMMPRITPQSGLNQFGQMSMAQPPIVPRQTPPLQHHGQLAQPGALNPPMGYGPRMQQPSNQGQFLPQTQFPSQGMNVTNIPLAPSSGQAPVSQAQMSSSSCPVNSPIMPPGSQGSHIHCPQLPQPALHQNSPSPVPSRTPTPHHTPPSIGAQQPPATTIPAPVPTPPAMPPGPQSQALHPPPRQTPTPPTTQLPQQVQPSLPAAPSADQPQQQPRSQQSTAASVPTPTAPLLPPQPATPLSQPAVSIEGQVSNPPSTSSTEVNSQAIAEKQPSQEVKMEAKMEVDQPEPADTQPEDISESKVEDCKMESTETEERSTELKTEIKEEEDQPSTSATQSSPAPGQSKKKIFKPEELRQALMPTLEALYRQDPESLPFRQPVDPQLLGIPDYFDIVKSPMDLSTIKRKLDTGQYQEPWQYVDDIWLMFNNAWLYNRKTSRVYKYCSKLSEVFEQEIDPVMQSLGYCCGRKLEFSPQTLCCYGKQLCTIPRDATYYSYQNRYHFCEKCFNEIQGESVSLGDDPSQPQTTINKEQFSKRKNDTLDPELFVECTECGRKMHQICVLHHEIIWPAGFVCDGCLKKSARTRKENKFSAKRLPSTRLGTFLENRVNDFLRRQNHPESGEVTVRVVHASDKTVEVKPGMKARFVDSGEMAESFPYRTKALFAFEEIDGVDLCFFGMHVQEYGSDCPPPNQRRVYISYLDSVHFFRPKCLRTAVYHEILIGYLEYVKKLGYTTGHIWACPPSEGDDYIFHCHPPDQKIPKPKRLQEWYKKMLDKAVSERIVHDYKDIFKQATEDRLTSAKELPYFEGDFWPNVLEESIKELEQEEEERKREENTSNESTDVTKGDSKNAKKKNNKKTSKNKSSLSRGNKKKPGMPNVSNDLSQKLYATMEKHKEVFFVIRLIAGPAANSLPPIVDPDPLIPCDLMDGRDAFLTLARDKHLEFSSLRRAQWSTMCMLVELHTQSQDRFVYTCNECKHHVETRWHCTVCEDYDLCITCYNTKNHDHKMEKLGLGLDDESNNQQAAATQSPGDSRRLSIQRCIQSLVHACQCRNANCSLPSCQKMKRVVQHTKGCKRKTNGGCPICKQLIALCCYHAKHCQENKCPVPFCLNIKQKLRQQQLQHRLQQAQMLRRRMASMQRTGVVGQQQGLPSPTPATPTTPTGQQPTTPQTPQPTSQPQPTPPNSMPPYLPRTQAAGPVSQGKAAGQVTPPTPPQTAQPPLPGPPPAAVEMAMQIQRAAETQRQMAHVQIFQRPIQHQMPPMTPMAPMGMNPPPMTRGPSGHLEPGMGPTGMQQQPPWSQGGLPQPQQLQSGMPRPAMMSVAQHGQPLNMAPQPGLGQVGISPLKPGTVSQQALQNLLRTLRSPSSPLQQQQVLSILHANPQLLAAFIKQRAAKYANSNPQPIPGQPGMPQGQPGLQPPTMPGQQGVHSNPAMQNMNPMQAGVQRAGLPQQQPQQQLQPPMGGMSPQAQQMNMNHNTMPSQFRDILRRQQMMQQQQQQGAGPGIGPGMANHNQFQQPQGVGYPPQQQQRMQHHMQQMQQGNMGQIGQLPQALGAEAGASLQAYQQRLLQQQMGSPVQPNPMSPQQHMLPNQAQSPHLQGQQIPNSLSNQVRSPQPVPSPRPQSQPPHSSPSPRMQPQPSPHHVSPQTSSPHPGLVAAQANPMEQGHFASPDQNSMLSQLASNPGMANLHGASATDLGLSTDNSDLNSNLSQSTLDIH
T1 sequence (Q96SW2 whole entry partner): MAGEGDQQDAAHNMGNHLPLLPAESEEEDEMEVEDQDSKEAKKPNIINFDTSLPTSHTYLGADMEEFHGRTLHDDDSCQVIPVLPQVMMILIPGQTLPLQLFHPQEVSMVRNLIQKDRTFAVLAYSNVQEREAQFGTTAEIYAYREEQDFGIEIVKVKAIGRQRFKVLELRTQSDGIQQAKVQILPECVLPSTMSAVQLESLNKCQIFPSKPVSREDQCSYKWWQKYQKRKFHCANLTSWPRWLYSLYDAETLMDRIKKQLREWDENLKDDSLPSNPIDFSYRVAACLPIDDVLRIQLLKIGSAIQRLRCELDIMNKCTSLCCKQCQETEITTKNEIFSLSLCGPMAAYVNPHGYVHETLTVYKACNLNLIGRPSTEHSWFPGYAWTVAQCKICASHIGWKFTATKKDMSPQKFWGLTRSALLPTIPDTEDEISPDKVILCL

[2] = target: T1, Protein cereblon/Histone acetyltransferase p300; test: PROTAC activity at CRBN/p300 in human SK-HEP1 cells assessed as induction of p300 degradation by measuring residual activity at 0.5 uM pretreated with MLN4924 at 0.5 uM followed by compound addition by immunoblotting analysis relative to control; assay type: cell-based
[3] = system: SK-HEP1; test: Inhibition of colony formation in human SK-HEP1 cells at 1 uM incubated for 14 days with compound containing media replacement for every 3 days by crystal violet staining based assay relative to control; assay type: functional; conditions: SK-HEP1, 336 h, time 14 day
[4] = target: T2, Protein cereblon/CREB-binding protein (Homo sapiens) (UniProt Q92793+Q96SW2); test: PROTAC activity at CRBN/CBP in human SK-HEP1 cells assessed as induction of […] protein degradation by measuring residual activity at 0.5 uM incubated for 24 hrs by immunoblotting analysis (reference value: 100%); assay type: cell-based
[5] = target: T2, Protein cereblon/CREB-binding protein (Homo sapiens); test: PROTAC activity at CRBN/CBP in human SK-HEP1 cells assessed as induction of […] protein degradation by measuring residual activity at 1 uM incubated for 24 hrs by immunoblotting analysis (reference value: 100%); assay type: cell-based
[6] = target: T1, Protein cereblon/Histone acetyltransferase p300; test: PROTAC activity at CRBN/p300 in human SK-HEP1 cells assessed as increase in protein ubiquitination at 2 uM incubated for 24 hrs by immunoblotting analysis (reference value: 100%); assay type: cell-based
[7] = target: T1, Protein cereblon/Histone acetyltransferase p300; test: PROTAC activity at CRBN/p300 in human SK-HEP1 cells assessed as induction of p300 degradation by measuring increase in p21 level at 0.5 uM pretreated with MG-132 at 1 uM followed by compound addition by immunoblotting analysis relative to control; assay type: cell-based
[8] = target: T1, Protein cereblon/Histone acetyltransferase p300; test: PROTAC activity at CRBN/p300 in human SK-HEP1 cells assessed as induction of p300 degradation by measuring residual activity at 0.5 uM pretreated with thalidomide at 0.5 uM followed by compound addition by immunoblotting analysis relative to control; assay type: cell-based
[9] = system: SK-HEP1; test: Induction of cell cycle arrest at G2/M phase in human SK-HEP1 cells assessed as CDK6 protein level at 1 uM incubated for 24 hrs by immunoblotting analysis (reference value: 100%); assay type: functional
[10] = system: SK-HEP1; test: Downregulation of ABI3BP mRNA expression in human SK-HEP1 cells at 1 uM incubated for 24 hrs by RT-qPCR analysis; assay type: functional, cell-based
[11] = system: SK-HEP1; test: Downregulation of COL3A1 mRNA expression in human SK-HEP1 cells at 1 uM incubated for 24 hrs by RT-qPCR analysis; assay type: functional, cell-based
[12] = system: SK-HEP1; test: Induction of apoptosis in human SK-HEP1 cells incubated for 72 hrs by Annexin V-FITC/PI staining based flow cytometry analysis; assay type: functional, cell-based; conditions: dose 0.5-2 µM

Compound: Cc1noc(C)c1-c1ccc2c(c1)nc([C@@H]1CCCC(=O)N1c1ccc(F)c(F)c1)n2C1CCN(C2CN(c3ccc4c(c3)C(=O)N(C3CCC(=O)NC3=O)C4=O)C2)CC1 (some centres not stated)
- Activity [1]: 59%
- Activity [2]: 101%
- inhibition at 1 µM [3]: > 70%
- Activity [4]: 98%
- Activity [5]: 92%
- Activity [6]: 125%
- Activity [7]: 537%
- Activity [8]: 99%
- Activity [9]: 102%
- Activity [10]: Active
- Activity [11]: Active
- Activity [12]: Dose-Dependent Effect
